This note sets out measurements from PMC7230940 (Marine Drugs, 2020).

Positions of bridges follow the written chain, without caps; N, C: chain ends. Residues, ends and D or L forms follow the SMILES beside them.

T1 sequence (P04757 whole entry, looked up, the tested form may be a part): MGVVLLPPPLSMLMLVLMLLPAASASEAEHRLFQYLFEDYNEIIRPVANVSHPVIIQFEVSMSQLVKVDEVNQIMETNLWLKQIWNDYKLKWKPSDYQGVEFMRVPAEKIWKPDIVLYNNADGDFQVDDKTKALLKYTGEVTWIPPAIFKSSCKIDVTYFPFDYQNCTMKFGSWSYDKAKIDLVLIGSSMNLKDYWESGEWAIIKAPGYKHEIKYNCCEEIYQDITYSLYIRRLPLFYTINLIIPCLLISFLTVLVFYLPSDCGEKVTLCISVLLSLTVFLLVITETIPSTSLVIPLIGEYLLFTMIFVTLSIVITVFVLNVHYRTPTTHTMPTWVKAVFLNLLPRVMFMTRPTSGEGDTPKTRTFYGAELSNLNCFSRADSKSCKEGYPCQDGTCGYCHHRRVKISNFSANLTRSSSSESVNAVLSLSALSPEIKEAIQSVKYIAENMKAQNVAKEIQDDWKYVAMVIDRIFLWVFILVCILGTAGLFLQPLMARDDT
T1 sequence (P12390 whole entry, looked up, the tested form may be a part): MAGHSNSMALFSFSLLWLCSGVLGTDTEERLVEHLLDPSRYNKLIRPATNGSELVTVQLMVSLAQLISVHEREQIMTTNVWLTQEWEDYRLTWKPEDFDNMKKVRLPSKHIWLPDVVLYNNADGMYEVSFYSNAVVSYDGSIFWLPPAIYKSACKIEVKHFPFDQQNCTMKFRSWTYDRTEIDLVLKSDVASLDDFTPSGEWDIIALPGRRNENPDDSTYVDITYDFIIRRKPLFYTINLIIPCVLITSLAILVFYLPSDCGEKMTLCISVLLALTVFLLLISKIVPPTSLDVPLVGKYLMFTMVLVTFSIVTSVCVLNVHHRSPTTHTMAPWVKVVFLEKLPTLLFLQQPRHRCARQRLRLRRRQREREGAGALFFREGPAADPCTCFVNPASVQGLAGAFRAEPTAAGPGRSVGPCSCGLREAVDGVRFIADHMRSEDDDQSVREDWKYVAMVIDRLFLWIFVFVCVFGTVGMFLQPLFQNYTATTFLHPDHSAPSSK
T1 sequence (P43143 whole entry, looked up, the tested form may be a part): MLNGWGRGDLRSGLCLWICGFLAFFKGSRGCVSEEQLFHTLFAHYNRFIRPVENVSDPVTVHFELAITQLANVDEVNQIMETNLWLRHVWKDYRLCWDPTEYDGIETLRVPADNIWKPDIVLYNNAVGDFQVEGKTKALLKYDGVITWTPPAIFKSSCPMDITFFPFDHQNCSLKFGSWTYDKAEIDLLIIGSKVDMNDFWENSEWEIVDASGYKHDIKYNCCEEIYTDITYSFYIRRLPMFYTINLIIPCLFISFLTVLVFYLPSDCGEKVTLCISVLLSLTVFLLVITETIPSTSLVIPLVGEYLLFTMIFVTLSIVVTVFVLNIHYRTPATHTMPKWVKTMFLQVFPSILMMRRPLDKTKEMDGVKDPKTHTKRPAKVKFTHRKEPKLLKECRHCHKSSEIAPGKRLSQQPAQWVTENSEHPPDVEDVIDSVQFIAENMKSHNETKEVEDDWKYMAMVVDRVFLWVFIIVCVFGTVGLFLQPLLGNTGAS

The test has as its target T1, rat α6/α3β2β3 nAChRs (Rattus norvegicus, UniProt P04757+P12390+P43143).
T1 construct: remaining part of the rat nAChR α3 subunit (Chrna3, UniProt P04757 by own knowledge), fused after the α6 extracellular portion; expressed in transfected cells; host or cells: Xenopus oocytes injected with in vitro transcribed cRNA
Format: cell-based.
With `CC(C)C[C@@H]1NC(=O)[C@H](CC(=O)O)NC(=O)[C@@H]2CCCN2C(=O)[C@H](Cc2c[nH]cn2)NC(=O)[C@H](CCCCN)NC(=O)[C@H](CC(N)=O)NC(=O)[C@H](CCCNC(=N)N)NC(=O)[C@@H]2CSSC[C@H](NC(=O)CN)C(=O)N[C@@H](CSSC[C@@H](C(N)=O)NC1=O)C(=O)N[C@@H](CO)C(=O)N[C@@H](CC(=O)O)C(=O)N1CCC[C@H]1C(=O)N1CCC[C@H]1C(=O)N2` [TxIB, α-Conotoxin TxIB, reference compound] (H-GCCSDPPCRNKHPDLC-NH2; disulfide 2-8, 3-16), the “inhibition of α6β2* nAChRs” value came to 42%. Take `CC(C)C[C@@H]1NC(=O)[C@H](CC(=O)O)NC(=O)[C@@H]2CCCN2C(=O)[C@H](Cc2c[nH]cn2)NC(=O)[C@H](CCCCN)NC(=O)[C@H](CC(N)=O)NC(=O)[C@H](CCCNC(=N)N)NC(=O)[C@@H]2CSSC[C@@H]3NC(=O)CNC(=O)CNC(=O)[C@H](C)NC(=O)[C@H](C)NC(=O)CNC(=O)[C@H](CSSC[C@H](NC3=O)C(=O)N[C@@H](CO)C(=O)N[C@@H](CC(=O)O)C(=O)N3CCC[C@H]3C(=O)N3CCC[C@H]3C(=O)N2)NC1=O` [cTxIB-4] (cyclo(AAGGCCSDPPCRNKHPDLCG); disulfide 5-11, 6-19): the “inhibition of α6β2* nAChRs” value is recorded as “about 35%”. For `CC(C)C[C@@H]1NC(=O)[C@H](CC(=O)O)NC(=O)[C@@H]2CCCN2C(=O)[C@H](Cc2c[nH]cn2)NC(=O)[C@H](CCCCN)NC(=O)[C@H](CC(N)=O)NC(=O)[C@H](CCCNC(=N)N)NC(=O)[C@@H]2CSSC[C@@H]3NC(=O)CNC(=O)CNC(=O)[C@H](C)NC(=O)[C@H](C)NC(=O)CNC(=O)CNC(=O)[C@H](CSSC[C@H](NC3=O)C(=O)N[C@@H](CO)C(=O)N[C@@H](CC(=O)O)C(=O)N3CCC[C@H]3C(=O)N3CCC[C@H]3C(=O)N2)NC1=O` [cTxIB-5] (cyclo(AAGGCCSDPPCRNKHPDLCGG); disulfide 5-11, 6-19) the value was ~42%; for `CC(C)C[C@@H]1NC(=O)[C@H](CC(=O)O)NC(=O)[C@@H]2CCCN2C(=O)[C@H](Cc2c[nH]cn2)NC(=O)[C@H](CCCCN)NC(=O)[C@H](CC(N)=O)NC(=O)[C@H](CCCNC(=N)N)NC(=O)[C@@H]2CSSC[C@@H]3NC(=O)CNC(=O)CNC(=O)[C@H](C)NC(=O)[C@H](C)NC(=O)CNC(=O)[C@H](C)NC(=O)CNC(=O)[C@H](CSSC[C@H](NC3=O)C(=O)N[C@@H](CO)C(=O)N[C@@H](CC(=O)O)C(=O)N3CCC[C@H]3C(=O)N3CCC[C@H]3C(=O)N2)NC1=O` [cTxIB-6] (cyclo(AAGGCCSDPPCRNKHPDLCGAG); disulfide 5-11, 6-19), ~48%; for `CC(C)C[C@@H]1NC(=O)[C@H](CC(=O)O)NC(=O)[C@@H]2CCCN2C(=O)[C@H](Cc2c[nH]cn2)NC(=O)[C@H](CCCCN)NC(=O)[C@H](CC(N)=O)NC(=O)[C@H](CCCNC(=N)N)NC(=O)[C@@H]2CSSC[C@@H]3NC(=O)CNC(=O)CNC(=O)[C@H](C)NC(=O)CNC(=O)[C@H](C)NC(=O)[C@H](C)NC(=O)CNC(=O)CNC(=O)[C@H](CSSC[C@H](NC3=O)C(=O)N[C@@H](CO)C(=O)N[C@@H](CC(=O)O)C(=O)N3CCC[C@H]3C(=O)N3CCC[C@H]3C(=O)N2)NC1=O` [cTxIB-7] (cyclo(AAGAGGCCSDPPCRNKHPDLCGG); disulfide 7-13, 8-21), ~41%.
